Experimental findings from the supplement of paper PMC11208160 are described below.

This data set is described as follows: recombinant UMI read abundance after kanamycin selection (control-corrected) (log10(CPM+1)); higher = more efficient recombination; extreme values may be limits of the assay; sequences stand for … in AGTGCAGAGAAAATCGGCCAGTTTTCTCTGCCTGCAGTCCGCATGCCGTGGGACCCCTTGGGTTCTAACCTGTTGCCTAGATTTATGCAGCGGACTGCCTTTCTCCCAAAGTGATAAACCGG…AGGTTGGTTTCACT; site = the 11-nt donor. The protocol:
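Pooled E. coli donor-specificity screen for the IS621 bridge recombinase. Each library member carries a reprogrammed 11-nt donor and a full-length LE bridge RNA expressed in cis from the natural promoter, with a paired donor-binding loop (8-nt LDG + 4-nt RDG) and a target-binding loop fixed to T5. It is co-electroporated with a T5 target plasmid; recombinase is induced with 0.07 mM IPTG and recombinants are selected on kanamycin. UMIs are counted as CPM, averaged over two biological replicates and corrected by the unselected control. Molecule = full bridge RNA written as DNA, built from the T5 scaffold: LDG = donor specificity nt 1-8, RDG = reverse complement of nt 8-11.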
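Note: IS621 bridge recombinase in Escherichia coli cells against a fixed T5 target plasmid.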

Consider “AACCGTCCATGGACCGGTTTTCCCGGTAATCCGTATTTGAA (site AACCGTCCTAT)”, for which the “recombinant UMI read abundance (log10)” value was determined as 0.0196. As for “AACCGTCCATGGACCGGTTTTCCCGGTAATCCGTATTTGAA (site AACCGTCCTCT)”, the “recombinant UMI read abundance (log10)” value stood at 0.0191.

Consider “AACCGTCCATGGACCGGTTTTCCCGGTAATCCGTATTTGAA (site AACCGTCCTGT)”, for which the “recombinant UMI read abundance (log10)” value was 0. Turning to “AACCGTCCATGGACCGGTTTTCCCGGTAATCCGTATTTGAA (site AACCGTCCTTT)”, the “recombinant UMI read abundance (log10)” value turned out to be 0.0144.

Regarding “AACCGTCCATGGACCGGTTTTCCCGGTAATCCGTATTTGCT (site AACCGTCCTAA)”, the “recombinant UMI read abundance (log10)” value stood at 0.0135. Take “AACCGTCCATGGACCGGTTTTCCCGGTAATCCGTATTTGCT (site AACCGTCCTAC)”: the “recombinant UMI read abundance (log10)” value was determined as 0.00247. With “AACCGTCCATGGACCGGTTTTCCCGGTAATCCGTATTTGCT (site AACCGTCCTAG)”, the “recombinant UMI read abundance (log10)” value came out at 0.593.

For “AACCGTCCATGGACCGGTTTTCCCGGTAATCCGTATTTGCT (site AACCGTCCTAT)”, the “recombinant UMI read abundance (log10)” value amounted to 0.0146. With “AACCGTCCATGGACCGGTTTTCCCGGTAATCCGTATTTGGT (site AACCGTCCTAA)”, the “recombinant UMI read abundance (log10)” value came out at 0.0129. Next, “AACCGTCCATGGACCGGTTTTCCCGGTAATCCGTATTTGGT (site AACCGTCCTAC)”: 0.0164; “AACCGTCCATGGACCGGTTTTCCCGGTAATCCGTATTTGGT (site AACCGTCCTAG)”: 0.00368. As to “AACCGTCCATGGACCGGTTTTCCCGGTAATCCGTATTTGGT (site AACCGTCCTAT)”, the “recombinant UMI read abundance (log10)” value was 0.00572.

On to “AACCTTCCATGGACCGGTTTTCCCGGTAATCCGTATTTGAA (site AACCTTCCTTT)”, for which the “recombinant UMI read abundance (log10)” value was 0.0147. To “AACGACGCATGGACCGGTTTTCCCGGTAATCCGTATTTGTA (site AACGACGCTTA)” belongs 1.99. Consider “AACGAGCCATGGACCGGTTTTCCCGGTAATCCGTATTTGAA (site AACGAGCCTTT)”, for which the “recombinant UMI read abundance (log10)” value turned out to be 0.157.

On to “AACGCAACATGGACCGGTTTTCCCGGTAATCCGTATTTGTT (site AACGCAACTAA)”, for which the “recombinant UMI read abundance (log10)” value was determined as 0.495.

For the sequence “AACGCTGCATGGACCGGTTTTCCCGGTAATCCGTATTTGAA (site AACGCTGCTTT)”, the “recombinant UMI read abundance (log10)” value worked out at 1.06. As to “AACGGAACATGGACCGGTTTTCCCGGTAATCCGTATTTGAT (site AACGGAACTAT)”, the “recombinant UMI read abundance (log10)” value amounted to 2.33. Regarding “AACGGTCCATGGACCGGTTTTCCCGGTAATCCGTATTTGGC (site AACGGTCCTGC)”, the “recombinant UMI read abundance (log10)” value came out at 0.

As for “AACGTTTCATGGACCGGTTTTCCCGGTAATCCGTATTTGCT (site AACGTTTCTAG)”, the “recombinant UMI read abundance (log10)” value was found to be 2.48. “AACTAGCCATGGACCGGTTTTCCCGGTAATCCGTATTTGCG (site AACTAGCCTCG)”: the “recombinant UMI read abundance (log10)” value was 0.00356. For the sequence “AACTATACATGGACCGGTTTTCCCGGTAATCCGTATTTGAC (site AACTATACTGT)”, the “recombinant UMI read abundance (log10)” value stood at 2.31.

On to “AACTATACATGGACCGGTTTTCCCGGTAATCCGTATTTGAC (site ACCTATACTGT)”, for which the “recombinant UMI read abundance (log10)” value was determined as 0.367. On to “AACTATACATGGACCGGTTTTCCCGGTAATCCGTATTTGAC (site AGCTATACTGT)”, for which the “recombinant UMI read abundance (log10)” value is 0.797.

“AACTATACATGGACCGGTTTTCCCGGTAATCCGTATTTGAC (site ATCTATACTGT)”: the “recombinant UMI read abundance (log10)” value was 1.94. To “AACTATGCATGGACCGGTTTTCCCGGTAATCCGTATTTGGA (site AAATATGCTTC)” belongs 0.502; to “AACTATGCATGGACCGGTTTTCCCGGTAATCCGTATTTGGA (site AACTATGCTTC)”, 1.22; to “AACTATGCATGGACCGGTTTTCCCGGTAATCCGTATTTGGA (site AAGTATGCTTC)”, 0.552. With “AACTATGCATGGACCGGTTTTCCCGGTAATCCGTATTTGGA (site AATTATGCTTC)”, the “recombinant UMI read abundance (log10)” value stood at 0.908.

As for “AACTATTCATGGACCGGTTTTCCCGGTAATCCGTATTTGCG (site AACTATTCTCG)”, the “recombinant UMI read abundance (log10)” value was 2.02. For “AACTGGACATGGACCGGTTTTCCCGGTAATCCGTATTTGGG (site AACTGGACTCC)”, the “recombinant UMI read abundance (log10)” value is 0.0254. As to “AACTTGACATGGACCGGTTTTCCCGGTAATCCGTATTTGAC (site AACTTGACTGT)”, the “recombinant UMI read abundance (log10)” value was found to be 0.

Consider “AACTTGTCATGGACCGGTTTTCCCGGTAATCCGTATTTGGC (site AACTTGTCTGC)”, for which the “recombinant UMI read abundance (log10)” value amounted to 0.

Turning to “AAGAACACATGGACCGGTTTTCCCGGTAATCCGTATTTGCA (site AAGAACACTTG)”, the “recombinant UMI read abundance (log10)” value was found to be 2.85. For “AAGAACACATGGACCGGTTTTCCCGGTAATCCGTATTTGCA (site AGGAAGACTTG)”, the “recombinant UMI read abundance (log10)” value worked out at 0. Turning to “AAGAAGACATGGACCGGTTTTCCCGGTAATCCGTATTTGAA (site AAGAAGACTTT)”, the “recombinant UMI read abundance (log10)” value turned out to be 2.39. Next, “AAGAAGACATGGACCGGTTTTCCCGGTAATCCGTATTTGAA (site AGGAAGACTTG)”: 0; “AAGAAGTCATGGACCGGTTTTCCCGGTAATCCGTATTTGTA (site AAGAAGTCTTA)”: 3.3; “AAGAGGACATGGACCGGTTTTCCCGGTAATCCGTATTTGCA (site AAGAGGACTTG)”: 2.65. For “AAGAGGACATGGACCGGTTTTCCCGGTAATCCGTATTTGCA (site AGGAAGACTTG)”, the “recombinant UMI read abundance (log10)” value turned out to be 1.62. As to “AAGCAAGCATGGACCGGTTTTCCCGGTAATCCGTATTTGGG (site AAGCAAGCTCC)”, the “recombinant UMI read abundance (log10)” value was 0.623. Next, “AAGCAAGCATGGACCGGTTTTCCCGGTAATCCGTATTTGGG (site AAGCACGCTCC)”: 0.0526. To “AAGCAAGCATGGACCGGTTTTCCCGGTAATCCGTATTTGGG (site AAGCAGGCTCC)” belongs 0; to “AAGCAAGCATGGACCGGTTTTCCCGGTAATCCGTATTTGGG (site AAGCATGCTCC)”, 0.0463.

“AAGCACACATGGACCGGTTTTCCCGGTAATCCGTATTTGGG (site AAGCACACTCC)”: the “recombinant UMI read abundance (log10)” value was 0.242.

Regarding “AAGCACACATGGACCGGTTTTCCCGGTAATCCGTATTTGGG (site AAGCACCCTCC)”, the “recombinant UMI read abundance (log10)” value was 0.0138. In the case of “AAGCACACATGGACCGGTTTTCCCGGTAATCCGTATTTGGG (site AAGCACGCTCC)”, the “recombinant UMI read abundance (log10)” value was 0.0056. As for “AAGCACACATGGACCGGTTTTCCCGGTAATCCGTATTTGGG (site AAGCACTCTCC)”, the “recombinant UMI read abundance (log10)” value was 0.222. To “AAGCACTCATGGACCGGTTTTCCCGGTAATCCGTATTTGGG (site AAGCACACTCC)” belongs 0.0075; to “AAGCACTCATGGACCGGTTTTCCCGGTAATCCGTATTTGGG (site AAGCACCCTCC)”, 0.00615; to “AAGCACTCATGGACCGGTTTTCCCGGTAATCCGTATTTGGG (site AAGCACGCTCC)”, 0.0931. Next, “AAGCACTCATGGACCGGTTTTCCCGGTAATCCGTATTTGGG (site AAGCACTCTCC)”: 1.57; “AAGCCTGCATGGACCGGTTTTCCCGGTAATCCGTATTTGTA (site AAGCCTGCTTA)”: 0.811. In the case of “AAGCGCGCATGGACCGGTTTTCCCGGTAATCCGTATTTGGG (site AAGCACGCTCC)”, the “recombinant UMI read abundance (log10)” value came to 0.0182. “AAGCGCGCATGGACCGGTTTTCCCGGTAATCCGTATTTGGG (site AAGCCCGCTCC)”: the “recombinant UMI read abundance (log10)” value stood at 0.0103. Next, “AAGCGCGCATGGACCGGTTTTCCCGGTAATCCGTATTTGGG (site AAGCGCGCTCC)”: 0.214; “AAGCGCGCATGGACCGGTTTTCCCGGTAATCCGTATTTGGG (site AAGCTCGCTCC)”: 0.0124; “AAGCGTCCATGGACCGGTTTTCCCGGTAATCCGTATTTGAT (site AAACGTCCTAT)”: 0.245. “AAGCGTCCATGGACCGGTTTTCCCGGTAATCCGTATTTGAT (site AACCGTCCTAT)”: the “recombinant UMI read abundance (log10)” value was determined as 0.281. With “AAGCGTCCATGGACCGGTTTTCCCGGTAATCCGTATTTGAT (site AAGCGTCCTAT)”, the “recombinant UMI read abundance (log10)” value turned out to be 1.17. As to “AAGCGTCCATGGACCGGTTTTCCCGGTAATCCGTATTTGAT (site AATCGTCCTAT)”, the “recombinant UMI read abundance (log10)” value worked out at 0.017. Regarding “AAGCTAGCATGGACCGGTTTTCCCGGTAATCCGTATTTGAA (site AAGCTAGCTTT)”, the “recombinant UMI read abundance (log10)” value worked out at 2.09.

In the case of “AAGCTAGCATGGACCGGTTTTCCCGGTAATCCGTATTTGAA (site CAGCTAGCTTT)”, the “recombinant UMI read abundance (log10)” value was 1.37. For “AAGCTAGCATGGACCGGTTTTCCCGGTAATCCGTATTTGAA (site GAGCTAGCTTT)”, the “recombinant UMI read abundance (log10)” value came out at 0.00246.

On to “AAGCTAGCATGGACCGGTTTTCCCGGTAATCCGTATTTGAA (site TAGCTAGCTTT)”, for which the “recombinant UMI read abundance (log10)” value came out at 1.48.
